# Laboratory results published in patent publication US20170008888A1 (KYORIN PHARMACEUTICAL CO., LTD., priority 2014, published 2017).
# Like-named read-outs stand apart in the source and are kept apart here.
# Tested on: human Th17 cells
# Test: Cytokine response by in vitro-polarized human Th17 cells stimulated with PMA/ionomycin
# Format: cell-based
# Conditions: 10 μM compound, PMA/ionomycin 20 h
# Method: In vitro differentiation of human Th17 cells: Human CD4+ T cells (isolated as described in protocol A) were polarized into Th17 cells as follows: Tissue culture-treated 100 mm plates (Corning, Corning, N.Y.) were coated with 10 μg/ml anti-human CD3 clone OKT3 antibody overnight at 4° C. Polarization was initiated by seeding approximately 2-3 e7 human CD4+ T cells onto the anti-CD3 plates in Polarization media consisting of: RPMI 1640 medium (Lonza, Allendale, N.J.) supplemented with 10% (v/v) charcoal-dextran treated, heat inactivated FBS (Omega Scientific, Tarzana, Calif.), 0.05 mM 2-Mercaptoethanol (Sigma-Aldrich, St. Louis, Mo.), and 1×Pen/Strep Amphotericin B (Lonza), with added recombinant human IL-23 (40 ng/ml) and anti-CD28 clone CD28.2 antibody (2 μg/ml); all recombinant human cytokines and anti-human neutralizing antibodies were purchased from eBioscience (San Diego, Calif.). Cells were incubated in the above Polarization media for 3 days at 37° C. in a humidified atmosphere at 5% CO2. After 3 days, the Polarization media was replaced with Maintenance media, consisting of RPMI 1640/FBS/2-Mercaptoethanol/Pen/Strep Amphotericin B supplemented with recombinant human IL-23 (40 ng/ml) alone, and the cells were re-plated onto regular tissue-culture-treated plates (not anti-CD3 coated). Cells were incubated in the Maintenance media for an additional 3 days at 37° C. in a humidified atmosphere at 5% CO2.
# Inhibition of PMA/ionomycin-stimulated cytokine response by in vitro-differentiated human Th17 cells: Human Th17 cells, generated as described above, were seeded at 2e6 cells/ml in RPMI 1640 containing 10% (v/v) charcoal-dextran treated, heat inactivated FBS (Omega Scientific, Tarzana, Calif.), 0.05 mM 2-Mercaptoethanol (Sigma-Aldrich, St. Louis, Mo.), and 1×Pen/Strep Amphotericin B (Lonza, Allendale, N.J.). Cells were pre-treated with test compounds (10 μM) for 1 h at 37° C. in a humidified atmosphere at 5% CO2. Cells were then stimulated with 50 ng/ml phorbol 12-myristate 13-acetate (PMA) (Sigma-Aldrich, St. Louis, Mo.)+1 μg/ml ionomycin (Life Technologies, Grand Island, N.Y.) for 20 h at 37° C. in a humidified atmosphere at 5% CO2. Supernatant was collected and analyzed using Bio-Plex Pro Human Th17 Cytokine 15-Plex Panel (Bio-Rad Laboratories, Hercules, Calif.) as per manufacturer's protocols. Magnetic beads were read on the Bio-Plex MAGPIX multiplex reader instrument using the accompanying xPONENT 4.2 acquisition software (Bio-Rad Laboratories). Data were analyzed via the Bio-Plex Manager software v6.1 (Bio-Rad Laboratories). Cytokine secretion levels from Th17 cells treated with 0.1% DMSO+Stimulation were normalized to 100%.
# IL-1β, IL-25, and IL-33 were below the limit of detection under conditions used. The concentrations of the observed analytes from top to bottom, as listed, are as follows: 8899, 567, 174, 99, 10380, 511, 239, 548, 81, 966, 504, and 76223 pg/ml.
# [1] = read-out: Percent inhibition of IFNγ (relative to DMSO control)
# [2] = read-out: Percent inhibition of IL-4 (relative to DMSO control)
# [3] = read-out: Percent inhibition of IL-6 (relative to DMSO control)
# [4] = read-out: Percent inhibition of IL-10 (relative to DMSO control)
# [5] = read-out: Percent inhibition of IL-17A (relative to DMSO control)
# [6] = read-out: Percent inhibition of IL-17F (relative to DMSO control)
# [7] = read-out: Percent inhibition of IL-21 (relative to DMSO control)
# [8] = read-out: Percent inhibition of IL-22 (relative to DMSO control)
# [9] = read-out: Percent inhibition of IL-23 (relative to DMSO control)
# [10] = read-out: Percent inhibition of IL-31 (relative to DMSO control)
# [11] = read-out: Percent inhibition of TNFα (relative to DMSO control)
# [12] = read-out: Percent inhibition of sCD40L (relative to DMSO control)
Compound,inhibition at 10 µM [1] [%],inhibition at 10 µM [2] [%],inhibition at 10 µM [3] [%],inhibition at 10 µM [4] [%],inhibition at 10 µM [5] [%],inhibition at 10 µM [6] [%],inhibition at 10 µM [7] [%],inhibition at 10 µM [8] [%],inhibition at 10 µM [9] [%],inhibition at 10 µM [10] [%],inhibition at 10 µM [11] [%],inhibition at 10 µM [12] [%]
CCOc1cc(C(=O)N2CCC(N3CCN(C)CC3)CC2)ccc1Nc1cc2c(cn1)N(C)C(=O)c1occc1N2C [Compound 65],-0.6,4.6,87.3,78.6,13.9,39.7,0.8,61.7,-79.4,-3.2,11.3,31.6
CCOc1cc(C(=O)N2CC[C@@H](N(C)C)C2)ccc1Nc1cc2c(cn1)N(C)C(=O)c1ccccc1N2C [Compound 115],18.4,1.5,92.5,80.1,68.3,83.5,-86.1,75.7,-30.7,3.4,57.1,53.7
CCOc1cc(C(=O)N2CCNCC2)ccc1Nc1cc2c(cn1)N(C)C(=O)c1ccccc1N2C [Compound 62],11.7,-17,87.8,80.3,27.7,60,2.5,66.2,15.8,-1.4,-10.4,31.9
CCOc1cc(C(=O)NCC2CC2)ccc1Nc1cc2c(cn1)N(C)C(=O)c1ccccc1N2C [Compound 57],17.4,-11.8,93.1,80,49.5,67.4,28.6,76.8,29.8,3,5.6,32.3
CCOc1cc(C(=O)N2CCC(N3CCN(C)CC3)CC2)ccc1Nc1cc2c(cn1)N(C)C(=O)c1ccccc1N2C [Compound 61],7.6,-19.5,91.4,78.6,37.5,80.9,22.4,65.8,-2.8,-1.1,-6.3,19
"CCOc1cc(C(=O)N2CCC(N3CCCC3)CC2)ccc1Nc1cc2c(cn1)N(C)C(=O)c1ccccc1N2C [Compound 46, 3-(2-Ethoxy-4-(4-(pyrrolidin-1-yl)piperidine-1-carbonyl)phenylamino)-5,11-dimethyl-5H-benzo[e]pyrido[3,4-b][1,4]diazepin-10(11H)-one]",11.9,-2.8,90.6,79.7,56.6,81.8,-6.1,74,-58.8,-3,22,36.3
